Experimental data taken from patent US12326385B2, “Cell-permeable fluorogenic fluorophores” (MAX-PLANCK-GESELLSCHAFT ZUR FÖRDERUNG DER WISSENSCHAFTEN E. …, priority 2018, dated 2025).
Marks after values point to notes of the source that are not given here.

Columns and labels:
SNAP-Halo-tag = experiment: Increase in absorbance and fluorescence on binding to SNAP-HaloTag protein in vitro; format: biochemical; details: for Φ / ε^protein / λabs / λem: binding with SNAP-Halo-tag; for F/F0: ± s.e.m.
Experimental: Measurement of Increase in Absorbance and Fluorescence.
SNAP-HaloTag protein were used as a 85 μM-200 μM solution in 75 mM NaCl, 50 mM TRIS-HCl, pH 7.4 with 50% v/v glycerol (TBS-glycerol). SNAPTag and HaloTag based fluorogenic probes were diluted to 1.0-2.0 μM in 10 mM HEPES, pH 7.3. Then an aliquot of SNAPTag/HaloTag protein (1.5-2.0 equiv) was added and the resulting mixture was incubated until consistent absorbance signal was observed (˜60 min).
(§1) SDS (10% in 10 mM HEPES) was added with dilution of 100 folds as a control group. Absorbance and fluorescence measurements were performed in 96-well plate (Thermos Fisher) with optical bottom.

[1] = UV-Vis and fluorescence spectroscopy of free dye or probe in buffer or SDS; format: physicochemical; details: for Φ / ε^SDS: 0.1% SDS in HEPES buffer (pH 7.3); for ε: HEPES buffer (pH 7.3)
Experimental: UV-Vis and Fluorescence Spectroscopy
Spectroscopy was performed using 96-well plate (Thermo Fisher) with optical bottom. All measurements were taken at ambient temperature (25±2° C.). Absorption and fluorescence spectra were recorded on Spark® microplate reader (Tecan). Maximum absorption wavelength (λabs), and maximum emission wavelength (λem) were taken in 10 mM HEPES, pH 7.3 buffer unless otherwise noted; reported values for ε are averages (n=3). Normalized spectra are shown for clarity.
as §1

[2] = test system: U2OS FlpIn Halo-SNAP-NLS expressing cells; experiment: No-wash live-cell confocal imaging, nuclear versus cytosol signal; format: cell-based; details: for signal and background in no-wash live-cell imaging: no washing; for Fnuc./Fcyt.: average ratio between nuclear signal (U2OS FlpIn Halo-SNAP-NLS expressing cells) and cytosol signal (normal U2OS cell), ± s.e.m.; for intracellular kinetics of labeling relative to control probe: nuclear localized SNAP-tag or HaloTag in U2OS cells
Source text: Self-labeling protein tags such as SNAP-tag and HaloTag are an efficient approach to attach synthetic fluorophores to proteins in living cells. The main challenge when using these tags for live-cell imaging is the low cell permeability of most fluorescent probes used for labeling and high background signal resulting from their unspecific binding. SNAP-tag fusion proteins can be specifically labeled with different fluorophores using appropriate O^6-benzlyguanine derivatives. A 6-TAMRA based probe (150) for SNAP-tag has been previously introduced for live-cell imaging, but its low cell-permeability and lack of fluorogenicity requires the use of high concentrations (5 μM) and repeated washing steps to remove excess and non-specifically bound probe. To address these problem, the inventors coupled fluorophores 132-135 to O^6-benzylguanine to obtain probes 152, 154, 156, and 158. […] The inventors then examined the performance of probes 150, 152, 154, 156, and 158 in live-cell imaging, in which U2OS cells stably expressing a nuclear localized SNAP-Halo fusion protein were co-cultured with regular U2OS cells not expressing any protein tags. […] Furthermore, the kinetics of labeling of nuclear localized SNAP-tag with MaP555-SNAP were much faster than those of control […]. The inventors then prepared the corresponding 6-TAMRA-based probes 151, 153, 155, 157, and 159 for HaloTag. As for SNAP-tag, the probe with the largest enhancement in absorbance (16-fold) and fluorescence intensity (35-fold) in in vitro assays was based on the N,N-dimethylsulfamide derivative 159 (abbreviated as MaP555-Halo in the following). […] The excellent performance of MaP555-SNAP and MaP555-Halo in live-cell imaging experiments support the inventors' assumption that establishing a dynamic equilibrium between the fluorescent zwitterion and the more hydrophobic spirolactam enables the generation of highly cell-permeable and fluorogenic probes for live-cell imaging.
Generation of U2OS FlpIn Halo-SNAP-NLS Cell Lines
The Flp-In™ System (ThermoFisher Scientific) was used to generated U2OS FlpIn Halo-SNAP-NLS expressing cells. pcDNA5-FRT-Halo-SNAP-NLS and pOG44 were co-transfected into the host cell line U2OS FLpIn (Malecki et al. Molecular and Cellular Biology 26, 4642 (2006)). Homologous recombination between the FRT sites in pcDNA5-FRT-Halo-SNAP-NLS and on the host cell chromosome, catalysed by the Flp recombinase expressed from pOG44, produced the U2OS FlpIn Halo-SNAP-NLS stably expressing cells.
Live-Cell Confocal Imaging
U2OS FlpIn Halo-SNAP-NLS expressing cells were grown in 96-well plate (Thermos Fisher) with optical bottom at 37° C. in a humidified 5% (vol/vol) CO2 environment. 50-500 nM probes and 2 μM verapamil were added and incubated for 1 h in DMEM media (Evrogen) containing 10% FBS. The cells were directly used to image without washing. Meanwhile, another group was imaged after being washed 2 times for 5 min with 1× phosphate buffered saline (PBS, pH 7.4) and DMEM supplemented with 10% FBS. Imaging was performed using Leica TCS SP8 confocal microscope. TMR- and Rhodamine B—, and Rhodamine 110-based probes were excited at 540 nm and the fluorescence signal was collected from 560-700 nm. Semi-Rhodamine-based probes were excited at 650 nm and the fluorescence signal was […] from 670-760 nm. Images were processed with Fiji (http://fiji.sc/wiki/index.php/Fiji) to obtain MIP (maximum intensity projections)

[3] = ratio of fluorescence intensities at 580 nm in the presence and absence of SNAP-Halo-tag
[4] = upon binding to SNAP-tag, in vitro
[5] = upon binding to HaloTag, in vitro
[6] = ratio of fluorescence intensities at 635 nm in the presence and absence of SNAP-Halo-tag

Structure (SMILES)	Φ (SNAP-Halo-tag)	ε^protein (SNAP-Halo-tag)	λabs (SNAP-Halo-tag) [nm]	λem (SNAP-Halo-tag) [nm]	fluorogenicity on binding to tag or target protein (SNAP-Halo-tag; in vitro)	F/F0 (SNAP-Halo-tag; ratio of fluorescence intensities at 720 nm in the presence and absence of SNAP-Halo-tag)	Φ [1]	ε^SDS [1]	ε [1]	signal and background in no-wash live-cell imaging ([2]; U2OS cells)	Fnuc./Fcyt. [2]	F/F0 (SNAP-Halo-tag; [3])	increase in absorbance at 555 nm (SNAP-Halo-tag; [4]) [fold]	increase in intensity of fluorescence emission at 580 nm (SNAP-Halo-tag; [4]) [fold]	nuclei to cytosol signal ratio (Fnuc/Fcyt) ([2]; no-wash live-cell imaging, U2OS cells, 250 nM for MaP555-SNAP and MaP700-Halo)	intracellular kinetics of labeling relative to control probe [2]	increase in absorbance (SNAP-Halo-tag; [5]) [fold]	increase in fluorescence intensity (SNAP-Halo-tag; [5]) [fold]	F/F0 (SNAP-Halo-tag; [6])
CN1CCc2cc3c(cc21)[Si](C)(C)c1cc2c(cc1C31OC(=O)c3ccc(C(=O)NCCOCCOCCCCCCCl)cc31)CCN2C [compound 37, reference compound]	0.27	83,000 M^−1cm^−1	695	718	only modest fluorogenicity	7.5 ± 0.2^e	0.25	85,000^c M^−1cm^−1	38,000 M^−1cm^−1	relatively high background signal	6.7 ± 1.5^f	–	–	–	–	–	–	–	–
CN(C)c1ccc2c(-c3cc(C(=O)NCc4ccc(COc5nc(N)nc6[nH]cnc56)cc4)ccc3C(=O)[O-])c3ccc(=[N+](C)C)cc-3oc2c1 [compound 150, reference compound]	0.42	66,000 M^−1cm^−1	555	578	–	–	0.61	82,000 M^−1cm^−1	22,000 M^−1cm^−1	barely detectable signal	1.8 ± 0.1^f	7.9 ± 0.2^e	–	–	–	–	–	–	–
CN(C)c1ccc2c(-c3cc(C(=O)NCCOCCOCCCCCCCl)ccc3C(=O)O)c3ccc(=[N+](C)C)cc-3oc2c1 [compound 151, reference compound]	0.51	82,000 M^−1cm^−1	555	578	–	–	0.68	87,000 M^−1cm^−1	58,000 M^−1cm^−1	–	9.4 ± 1.7^f	1.8 ± 0.1^e	–	–	–	–	–	–	–
CN(C)c1ccc2c(c1)Oc1cc(N(C)C)ccc1C21c2cc(C(=O)NCc3ccc(COc4nc(N)nc5[nH]cnc45)cc3)ccc2C(=O)N1C#N [compound 152]	0.33	68,000 M^−1cm^−1	558	580	–	–	0.58	82,000 M^−1cm^−1	18,000 M^−1cm^−1	–	8.1 ± 0.9^f	18 ± 2.6^e	–	–	–	–	–	–	–
CN(C)c1ccc2c(c1)Oc1cc(N(C)C)ccc1C21c2cc(C(=O)NCCOCCOCCCCCCCl)ccc2C(=O)N1C#N [compound 153]	0.46	71,000 M^−1cm^−1	557	580	–	–	0.71	79,000 M^−1cm^−1	15,000 M^−1cm^−1	–	10 ± 0.4^f	7.3 ± 0.8^e	–	–	–	–	–	–	–
CN(C)c1ccc2c(c1)Oc1cc(N(C)C)ccc1C21c2cc(C(=O)NCc3ccc(COc4nc(N)nc5[nH]cnc45)cc3)ccc2C(=O)N1S(C)(=O)=O [compound 154]	0.38	65,000 M^−1cm^−1	558	580	–	–	0.65	86,000 M^−1cm^−1	15,000 M^−1cm^−1	–	7.9 ± 0.9^f	9.7 ± 0.1^e	–	–	–	–	–	–	–
CN(C)c1ccc2c(c1)Oc1cc(N(C)C)ccc1C21c2cc(C(=O)NCCOCCOCCCCCCCl)ccc2C(=O)N1S(C)(=O)=O [compound 155]	0.56	85,000 M^−1cm^−1	559	580	–	–	0.66	95,000 M^−1cm^−1	40,000 M^−1cm^−1	–	12 ± 2.6^f	3.7 ± 0.4^e	–	–	–	–	–	–	–
CN(C)c1ccc2c(c1)Oc1cc(N(C)C)ccc1C21c2cc(C(=O)NCc3ccc(COc4nc(N)nc5[nH]cnc45)cc3)ccc2C(=O)N1S(N)(=O)=O [compound 156]	0.46	57,000 M^−1cm^−1	557	578	–	–	0.62	89,000 M^−1cm^−1	9,800 M^−1cm^−1	–	9.8 ± 0.8^f	13 ± 2.4^e	–	–	–	–	–	–	–
CN(C)c1ccc2c(c1)Oc1cc(N(C)C)ccc1C21c2cc(C(=O)NCCOCCOCCCCCCCl)ccc2C(=O)N1S(N)(=O)=O [compound 157]	0.56	87,000 M^−1cm^−1	558	580	–	–	0.65	91,000 M^−1cm^−1	9,600 M^−1cm^−1	–	14 ± 0.7^f	19 ± 3.2^e	–	–	–	–	–	–	–
CN(C)c1ccc2c(c1)Oc1cc(N(C)C)ccc1C21c2cc(C(=O)NCc3ccc(COc4nc(N)nc5[nH]cnc45)cc3)ccc2C(=O)N1S(=O)(=O)N(C)C [compound 158]	0.46	54,000 M^−1cm^−1	556	576	–	–	0.61	88,000 M^−1cm^−1	3,500 M^−1cm^−1	–	15 ± 2.9^f	21 ± 3.2^e	15	21	15	much faster	–	–	–
CN(C)c1ccc2c(c1)Oc1cc(N(C)C)ccc1C21c2cc(C(=O)NCCOCCOCCCCCCCl)ccc2C(=O)N1S(=O)(=O)N(C)C [compound 159]	0.54	87,000 M^−1cm^−1	558	578	–	–	0.63	92,000 M^−1cm^−1	5,200 M^−1cm^−1	much lower background signal	18 ± 2.9^f	35 ± 2.3^e	–	–	–	about two-fold faster	16	35	–
CN(C)c1ccc2c(c1)C(C)(C)c1cc(N(C)C)ccc1C21c2cc(C(=O)NCCOCCOCCCCCCCl)ccc2C(=O)N1C#N [compound 161]	0.53	144,000 M^−1cm^−1	618	635	–	–	0.72	70,000^c M^−1cm^−1	1,500 M^−1cm^−1	–	19 ± 1.2^f	–	–	–	–	–	–	–	112 ± 3.8^e
CN(C)c1ccc2c(c1)C(C)(C)c1cc(N(C)C)ccc1C21c2cc(C(=O)NCCOCCOCCCCCCCl)ccc2C(=O)N1S(C)(=O)=O [compound 163]	0.50	121,000 M^−1cm^−1	618	635	–	–	0.76	45,000^c M^−1cm^−1	1,600 M^−1cm^−1	–	24 ± 1.8^f	–	–	–	–	–	–	–	179 ± 14^e
